Here are results for 54 compounds from US20230135635A1, “INHIBITORS OF ULK1/2 AND METHODS OF USING SAME” (SALK INSTITUTE FOR BIOLOGICAL STUDIES, priority 2020, published 2023).

pIC50: −log10 of the molar value.

This assay concerns the target T1, recombinant human ULK1 protein (1-649) (Homo sapiens, UniProt O75385).
T1 construct: recombinant human ULK1 protein (1-649, SignalChem #U01-11G); purchased SignalChem U01-11G
T1 sequence (O75385 1-649): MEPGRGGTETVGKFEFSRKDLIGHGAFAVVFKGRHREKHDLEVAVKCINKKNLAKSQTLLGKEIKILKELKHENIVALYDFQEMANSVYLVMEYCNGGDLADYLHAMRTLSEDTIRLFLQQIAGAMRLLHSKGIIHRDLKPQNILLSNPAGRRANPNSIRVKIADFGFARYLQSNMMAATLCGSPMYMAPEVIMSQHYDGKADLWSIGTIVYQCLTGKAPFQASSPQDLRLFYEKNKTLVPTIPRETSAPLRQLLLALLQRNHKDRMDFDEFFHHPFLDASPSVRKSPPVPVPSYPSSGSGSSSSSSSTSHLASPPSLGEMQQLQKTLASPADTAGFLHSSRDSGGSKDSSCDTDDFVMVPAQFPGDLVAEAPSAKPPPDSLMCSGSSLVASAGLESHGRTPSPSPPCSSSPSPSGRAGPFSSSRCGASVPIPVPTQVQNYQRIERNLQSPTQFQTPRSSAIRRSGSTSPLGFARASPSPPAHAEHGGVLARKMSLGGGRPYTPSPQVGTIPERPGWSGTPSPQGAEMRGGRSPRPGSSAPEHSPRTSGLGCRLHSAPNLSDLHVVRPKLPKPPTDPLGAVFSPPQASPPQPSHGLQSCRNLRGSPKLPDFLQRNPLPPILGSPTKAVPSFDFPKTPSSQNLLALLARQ
The experiment in a line: ULK1 inhibition assay (ADP Glo). It is filed as biochemical. The settings on record: Table 1; 25 uM ATP, MBP substrate, one hour. The procedure:
Illustrative compounds of Formula I and related analogs are shown in Table 1 (along with their respective IC50 values for ULK1 inhibition assays). For ADP Glo assay, IC50s are represented nM, with A representing IC50<1 nM, B representing 10 nM>IC50>1 nM, and C representing IC50>10 nM. NT indicates the compound was not tested. ULK1 inhibition assays were performed in a 5 uL reaction volume containing 2 ug/mL recombinant human ULK1 protein (1-649, SignalChem #U01-11G) and 80 ug/mL myelin basic protein (MBP, Sigma-Aldrich #M1891) in the presence of 25 uM ATP (Sigma-Aldrich A7699). ULK 1 inhibition was assessed after one hour. Compounds were tested in triplicate in a 16-dose IC50 mode with 3-fold serial dilution and a starting dose of 30 uM. Staurosporine, a non-selective protein kinase inhibitor, was used in the assay as a positive control.
According to another embodiment, the present disclosure provides methods of producing the above-defined compounds. The compounds may be synthesized using any suitable techniques. Advantageously, these compounds are conveniently synthesized from readily available starting materials. Synthetic chemistry transformations and methodologies useful in synthesizing the compounds described herein are known in the art and include, for example, those described in R. Larock, Comprehensive Organic Transformations (1989); T. W. Greene and P. G. M. Wuts, Protective Groups in Organic Synthesis, 2d. Ed. (1991); L. Fieser and M. Fieser, Fieser and Fieser's Reagents for Organic Synthesis (1994); and L. Paquette, ed., Encyclopedia of Reagents for Organic Synthesis (1995).). In general, synthesis and measurements of ULK1 inhibitory activity of the compounds described herein was performed using method analogous to those previously described in PCT International Application No. PCT/US2015/046777 which is hereby incorporated by reference in its entirety.
On the technique in general: In ADP-Glo the light output rises with the ADP produced.
A word on the pIC50: it is the negative decadic logarithm of the IC50, by convention in mol/L. Regarding `N[C@@H](CC(=O)O)C(=O)N1CCc2cc(Nc3ncc(C(F)(F)F)c(NC4CC4)n3)ccc2C1` (racemic) [Compound A66], the pIC50 was greater than 9.00.

With `O=C(O)C[C@H](NC(=O)OCc1ccccc1)C(=O)N1CCc2cc(Nc3ncc(C(F)(F)F)c(NC4CC4)n3)ccc2C1` (racemic) [Compound A67], the pIC50 is greater than 9.00.

In the case of `CNC(=O)c1ccccc1Nc1nc(Nc2ccc3c(c2)CCN(C(=O)[C@@H](N)CO)C3)ncc1Br` (racemic) [Compound A139, 2-{2-[2-(2-Amino-3-hydroxy-propionyl)-1,2,3,4-tetrahydro-isoquinolin-6-ylamino]-5-bromo-pyrimidin-4-ylamino}-N-methyl-benzamide], the pIC50 was less than 8.00.

Turning to `CNC(=O)c1ccccc1Nc1nc(Nc2ccc3c(c2)CN(C(=O)[C@@H](N)CO)CC3)ncc1Br` (racemic) [Compound A154, 2-{2-[2-(2-Amino-3-hydroxy-propionyl)-1,2,3,4-tetrahydro-isoquinolin-7-ylamino]-5-bromo-pyrimidin-4-ylamino}-N-methyl-benzamide], the pIC50 was less than 8.00.

As to `N[C@H](CO)C(=O)N1CCc2cc(Nc3ncc(C(F)(F)F)c(NC4CC4)n3)ccc2C1` (stereo in doubt) [Compound A48], the negative-log IC50 (pIC50) is greater than 9.00.

For `N[C@@H](CO)C(=O)N1CCc2cc(Nc3ncc(C(F)(F)F)c(NC4CC4)n3)ccc2C1` (stereo in doubt) [Compound A57], the pIC50 is 8.00 to 9.00.

For the compound `CN1CCc2cc(Nc3ncc(C(F)(F)F)c(NC4CC4)n3)ccc2C1` [Compound A1], the pIC50 is greater than 9.00.

Take `O=C(N1CCOCC1)N1CCc2cc(Nc3ncc(C(F)(F)F)c(NC4CC4)n3)ccc2C1` [Compound A2]: the pIC50 is 8.00 to 9.00.

On to `FC(F)(F)c1cnc(Nc2ccc3c(c2)CCN(Cc2ccncc2)C3)nc1NC1CC1` [Compound A3], for which the pIC50 was greater than 9.00.

`COC(=O)N1CCc2cc(Nc3ncc(C(F)(F)F)c(NC4CC4)n3)ccc2C1` [Compound A4]: the pIC50 is 8.00 to 9.00.

In the case of `FC(F)(F)c1cnc(Nc2ccc3c(c2)CCN(CCN2CCOCC2)C3)nc1NC1CC1` [Compound A5], the pIC50 is greater than 9.00.

Turning to `CCNC(=O)N1CCc2cc(Nc3ncc(C(F)(F)F)c(NC4CC4)n3)ccc2C1` [Compound A6], the pIC50 is 8.00 to 9.00.

As for `O=C(O)CCN1CCc2cc(Nc3ncc(C(F)(F)F)c(NC4CC4)n3)ccc2C1` [Compound A7], the pIC50 is greater than 9.00.

For the compound `FC(F)(F)c1cnc(Nc2ccc3c(c2)CCN(Cc2ccccc2)C3)nc1NC1CC1` [Compound A8], the pIC50 was greater than 9.00.

Regarding `FC(F)(F)c1cnc(Nc2ccc3c(c2)CCN(C2COC2)C3)nc1NC1CC1` [Compound A9], the pIC50 is 8.00 to 9.00.

With `CCN(CC)C(=O)N1CCc2cc(Nc3ncc(C(F)(F)F)c(NC4CC4)n3)ccc2C1` [Compound A10], the pIC50 is 8.00 to 9.00.

Turning to `CSCCN1CCc2cc(Nc3ncc(C(F)(F)F)c(NC4CC4)n3)ccc2C1` [Compound A11], the pIC50 was greater than 9.00.

As to `CS(=O)(=O)N1CCc2cc(Nc3ncc(C(F)(F)F)c(NC4CC4)n3)ccc2C1` [Compound A12], the pIC50 is 8.00 to 9.00.

Consider `OCC(O)CN1CCc2cc(Nc3ncc(C(F)(F)F)c(NC4CC4)n3)ccc2C1` (stereo not drawn) [Compound A13], for which the pIC50 was less than 8.00.

As for `NC(=O)N1CCc2cc(Nc3ncc(C(F)(F)F)c(NC4CC4)n3)ccc2C1` [Compound A14], the pIC50 was 8.00 to 9.00.

For the compound `CC(C)(C)OC(=O)N1CCc2ccc(Nc3ncc(C(F)(F)F)c(NC4CC4)n3)cc2C1` [Compound A15], the pIC50 is 8.00 to 9.00.

Consider `FC(F)(F)c1cnc(Nc2ccc3c(c2)CNCC3)nc1NC1CC1` [Compound A16], for which the pIC50 is greater than 9.00.

As for `FC(F)(F)c1cnc(Nc2ccc3c(c2)CCN(CC2OCCO2)C3)nc1NC1CC1` [Compound A17], the pIC50 is greater than 9.00.

`CC(C)(O)CN1CCc2cc(Nc3ncc(C(F)(F)F)c(NC4CC4)n3)ccc2C1` [Compound A18]: the pIC50 is greater than 9.00.

`O=C(O)CCC(=O)N1CCc2cc(Nc3ncc(C(F)(F)F)c(NC4CC4)n3)ccc2C1` [Compound A20]: the pIC50 was greater than 9.00.

Turning to `CC(C)(C)OC(=O)N1CCc2cc(Nc3ncc([N+](=O)O)c(NC4CC4)n3)ccc2C1` [Compound A21], the pIC50 is less than 8.00.

Take `CC(C)(C)OC(=O)N1CCc2cc(Nc3ncc(N)c(NC4CC4)n3)ccc2C1` [Compound A22]: the pIC50 is less than 8.00.

Regarding `FC(F)(F)c1cnc(Nc2ccc3c(c2)CCN(CCS)C3)nc1NC1CC1` [Compound A23], the pIC50 was greater than 9.00.

Take `CNC(=S)Nc1cnc(Nc2ccc3c(c2)CCNC3)nc1NC1CC1` [Compound A24]: the negative-log IC50 (pIC50) was less than 8.00.

For the compound `NS(=O)(=O)N1CCc2cc(Nc3ncc(C(F)(F)F)c(NC4CC4)n3)ccc2C1` [Compound A25], the pIC50 was greater than 9.00.

Consider `NCC(=O)Nc1cnc(Nc2ccc3c(c2)CCNC3)nc1NC1CC1` [Compound A26], for which the pIC50 is less than 8.00.

As for `NCC(=O)N1CCc2cc(Nc3ncc(C(F)(F)F)c(NC4CC4)n3)ccc2C1` [Compound A27], the pIC50 is greater than 9.00.

Turning to `CCOC(=O)c1cnc(Nc2ccc3c(c2)CCN(C(=O)OC(C)(C)C)C3)nc1NC1CC1` [Compound A28], the pIC50 was less than 8.00.

For the compound `CC(C)(C)OC(=O)NCCC(=O)N1CCc2cc(Nc3ncc(C(F)(F)F)c(NC4CC4)n3)ccc2C1` [Compound A29], the pIC50 is greater than 9.00.

Take `CC(C)(C)OC(=O)N1CCc2cc(Nc3ncc(C(=O)O)c(NC4CC4)n3)ccc2C1` [Compound A30]: the pIC50 is less than 8.00.

Turning to `NCCC(=O)N1CCc2cc(Nc3ncc(C(F)(F)F)c(NC4CC4)n3)ccc2C1` [Compound A31], the pIC50 was greater than 9.00.

In the case of `O=C(OCCO)c1cnc(Nc2ccc3c(c2)CCNC3)nc1NC1CC1` [Compound A33], the pIC50 is less than 8.00.

For `NCCN1CCc2cc(Nc3ncc(C(F)(F)F)c(NC4CC4)n3)ccc2C1` [Compound A34], the pIC50 is greater than 9.00.

Consider `CNCC(=O)N1CCc2cc(Nc3ncc(C(F)(F)F)c(NC4CC4)n3)ccc2C1` [Compound A35], for which the pIC50 was greater than 9.00.

For the compound `O=C(NCCO)c1cnc(Nc2ccc3c(c2)CCNC3)nc1NC1CC1` [Compound A36], the negative logarithm of the IC50 (pIC50) is less than 8.00.

As for `CN1CCN(C(=O)N2CCc3cc(Nc4ncc(C(F)(F)F)c(NC5CC5)n4)ccc3C2)CC1` [Compound A37], the negative logarithm of the IC50 (pIC50) is greater than 9.00.

As to `O=C(NCC(F)(F)F)c1cnc(Nc2ccc3c(c2)CCNC3)nc1NC1CC1` [Compound A38], the pIC50 was less than 8.00.

For the compound `NC(=O)CN1CCc2cc(Nc3ncc(C(F)(F)F)c(NC4CC4)n3)ccc2C1` [Compound A39], the pIC50 is less than 8.00.

For `FC(F)(F)c1cnc(Nc2ccc3c(c2)CCN(CC2CCCN2)C3)nc1NC1CC1` (stereo not drawn) [Compound A40], the negative logarithm of the IC50 (pIC50) was 8.00 to 9.00.

Take `FC(F)(F)c1cnc(Nc2ccc3c(c2)CCN(CC2CNC2)C3)nc1NC1CC1` [Compound A41]: the pIC50 is greater than 9.00.

For the compound `FC(F)(F)c1cnc(Nc2ccc3c(c2)CCN(Cc2cc[nH]c2)C3)nc1NC1CC1` [Compound A42], the pIC50 is greater than 9.00.

Regarding `FC(F)(F)c1cnc(Nc2ccc3c(c2)CCN(CC2CCNC2)C3)nc1NC1CC1` (stereo not drawn) [Compound A43], the pIC50 is greater than 9.00.

In the case of `CN(C)CCN1CCc2cc(Nc3ncc(C(F)(F)F)c(NC4CC4)n3)ccc2C1` [Compound A44], the pIC50 was greater than 9.00.

For `N#CCN1CCc2cc(Nc3ncc(C(F)(F)F)c(NC4CC4)n3)ccc2C1` [Compound A45], the pIC50 is greater than 9.00.

For the compound `FC(F)(F)c1cnc(Nc2ccc3c(c2)CCN(Cc2ccco2)C3)nc1NC1CC1` [Compound A46], the pIC50 is greater than 9.00.

With `FC(F)(F)c1cnc(Nc2ccc3c(c2)CCN(Cc2cncnc2)C3)nc1NC1CC1` [Compound A49], the pIC50 is greater than 9.00.

On to `COCCN1CCc2cc(Nc3ncc(C(F)(F)F)c(NC4CC4)n3)ccc2C1` [Compound A50], for which the pIC50 is greater than 9.00.

`FC(F)(F)c1cnc(Nc2ccc3c(c2)CCN(C2CNC2)C3)nc1NC1CC1` [Compound A52]: the pIC50 is greater than 9.00.

As to `OCCN1CCc2cc(Nc3ncc(C(F)(F)F)c(NC4CC4)n3)ccc2C1` [Compound A53], the pIC50 was greater than 9.00.
